Laboratory results reported in PMC6838683, “Discovery of Human Signaling Systems: Pairing Peptides to G Protein-Coupled Receptors” (Cell, 2019).
Positions of bridges follow the written chain, without caps; N, C: chain ends. Residues, ends and D or L forms follow the SMILES beside them.

Legend:
GPR139 [1] = target: T1, GPR139 (Homo sapiens, UniProt Q6DWJ6); assay: β-arrestin recruitment (Tango), validation; assay type: cell-based
T1 construct: hIL-2Ra signal peptide (N); expressed in transfected cells
T1 sequence (Q6DWJ6 2-353 limits assumed): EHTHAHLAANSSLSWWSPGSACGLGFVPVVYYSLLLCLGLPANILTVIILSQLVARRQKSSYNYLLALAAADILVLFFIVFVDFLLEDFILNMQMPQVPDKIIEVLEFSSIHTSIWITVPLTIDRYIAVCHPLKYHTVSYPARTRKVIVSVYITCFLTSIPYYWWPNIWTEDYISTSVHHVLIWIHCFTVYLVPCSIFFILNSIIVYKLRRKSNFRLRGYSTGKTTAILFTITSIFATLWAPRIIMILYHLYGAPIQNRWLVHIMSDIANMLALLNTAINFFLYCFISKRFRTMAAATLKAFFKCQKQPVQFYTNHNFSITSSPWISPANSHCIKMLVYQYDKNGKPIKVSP
Text: (§1) Supplement mmc7.xlsx, sheet "Peptide validation data" | column: Comment

GPR139 [2] = target: T1, GPR139; assay: IP1 accumulation; assay type: cell-based; details: mean, SEM and n
Text: Supplement mmc7.xlsx, sheet "Peptide validation data" | column: Emax; pEC50

GPR139 [3] = target: T1, GPR139; assay: Repeat of proposed literature pairing (mass redistribution and/or internalization); assay type: cell-based; details: GPR139
Text: DMR assays provide a single integrated readout of ligand-dependent cellular response, utilizing an optical biosensor in specialized microplates to detect wavelength shifts of reflected light as it passes through the biosensor and the lower portion of the cell (∼150-200 nm). As a signal pathway agnostic approach, DMR assays are well-suited to the study of GPCRs ([Fang et al., 2008], [Schröder et al., 2011]). The mass redistribution response (Δ picometer (pm)) likely reflects a number of intracellular events, including cytoskeletal rearrangement, protein trafficking and receptor internalization. Orphan receptor-expressing cells were gently washed twice with assay buffer (HBSS with 1 mM CaCl2, 1 mM MgCl2, 20 mM HEPES, 0.01% pluronic F-68, pH 7.4) containing 0.1% DMSO and cells were equilibrated for 90 min at 22°C in the EPIC Benchtop (BT) System (Corning) to establish a stable DMR signal. After 3-5 min baseline recordings, peptides (10 μM) were added in duplicate wells using an electronic 384-channel Viaflo pipette (Integra Biosciences, Switzerland) and DMR responses were measured for 60 min at 22°C. 100 nM norepinephrine was included as an internal assay control to assess the cellular DMR response via endogenously-expressed adrenoceptors in the TREx 293 cells. Real-time data were processed using the BT to column converter MS-Excel macro (Corning) and analyzed in GraphPad Prism 7.0. DMR recordings in peptide screening experiments were buffer and solvent corrected and the area under the curve (AUC) was quantified. For subsequent validation experiments, peptides were diluted in assay buffer containing 0.1% DMSO and DMR assays were performed as above. […] Data represent mean ± standard error of the mean (SEM) from at least 3 biologically independent experiments.
A TR-FRET real-time internalization assay was used to examine peptide-dependent changes in orphan receptor localization as described previously ([Foster and Bräuner-Osborne, 2018]). Surface-expressed SNAP-tagged receptors were labeled with a cell-impermeable luminescent terbium cryptate (100 nM SNAP Lumi4-Tb; Cisbio, France) for 1 hr at 37°C. Cells were washed to remove excess terbium and incubated with fluorescein-O-acetic acid (100 μM; Sigma Aldrich) for 5 min at 37°C. Peptides were added as for DMR assays, and internalization responses were recorded for 60 min at 37°C using an EnVision 2104 Multimode plate reader (PerkinElmer). 100 nM GLP-1 was used as a positive control for SNAP-GLP1R internalization. Real-time internalization responses were calculated based on TR-FRET (excitation 340 nm; emission 520 nm and 615 nm), and were expressed as the ratio between donor (terbium) and acceptor (fluorescein) emission. For peptide screening analysis (both DMR and internalization assays), we calculated the area under the curve from the real-time traces. […] Validation experiments for receptor internalization were performed as above. Internalization data was processed in MS-Excel and area under the curve was used to generate concentration-response curves using GraphPad Prism 7.0. Data represent mean ± standard error of the mean (SEM) from at least 3 biologically independent experiments.

GPR55 [4] = target: T2, GPR55 (Homo sapiens, UniProt Q9Y2T6); assay: β-arrestin recruitment (Tango); assay type: cell-based; set-up: hIL-2Ra signal peptide (N); expressed in transfected cells
T2 sequence (Q9Y2T6 2-319 limits assumed): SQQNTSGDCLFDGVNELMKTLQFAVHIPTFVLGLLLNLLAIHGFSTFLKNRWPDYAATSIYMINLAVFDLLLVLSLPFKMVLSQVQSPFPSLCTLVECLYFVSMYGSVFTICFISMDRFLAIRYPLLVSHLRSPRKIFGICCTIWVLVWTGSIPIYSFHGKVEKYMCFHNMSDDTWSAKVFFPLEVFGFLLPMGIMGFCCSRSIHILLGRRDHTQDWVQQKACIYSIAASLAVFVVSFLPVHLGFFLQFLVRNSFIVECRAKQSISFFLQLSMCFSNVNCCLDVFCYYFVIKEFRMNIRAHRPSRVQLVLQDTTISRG

GPR55 [5] = target: T2, GPR55; assay: Dynamic mass redistribution (DMR), concentration-response; assay type: cell-based; set-up: hIL-2Ra signal peptide (N); expressed in transfected cells; details: GPR55, data from single experiment (n = 1)
How it was run: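 Doxycycline-induced (0.1 μg/ml) SNAP-tagged receptors in TREx 293 cells, equilibrated 90 min at 22°C in HEPES-buffered HBSS, pH 7.4, with 0.1% DMSO. Peptide-evoked optical wavelength shift recorded for 60 min at 22°C, buffer/solvent corrected and quantified as area under the curve. Mean ± SEM of at least 3 independent experiments.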

GPR55 [6] = target: T2, GPR55; assay: Real-time receptor internalization (TR-FRET), concentration-response; assay type: cell-based; set-up: hIL-2Ra signal peptide (N); expressed in transfected cells; details: GPR55, data from single experiment (n = 1)
How it was run: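 Doxycycline-induced (0.1 μg/ml) SNAP-tagged receptor cells had surface receptors labeled with 100 nM Lumi4-Tb for 1 h at 37°C, then 100 μM fluorescein-O-acetic acid for 5 min. Peptide-induced internalization was recorded by TR-FRET for 60 min at 37°C as donor/acceptor emission ratio. Area under the curve gave concentration-response curves; mean ± SEM, ≥3 independent experiments.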

GPR176 [7] = target: T3, GPR176 (Homo sapiens, UniProt Q14439); assay: Real-time receptor internalization, validation; assay type: cell-based
T3 construct: host or cells: HTLA cells (HEK293-derived)
T3 sequence (Q14439 1-515): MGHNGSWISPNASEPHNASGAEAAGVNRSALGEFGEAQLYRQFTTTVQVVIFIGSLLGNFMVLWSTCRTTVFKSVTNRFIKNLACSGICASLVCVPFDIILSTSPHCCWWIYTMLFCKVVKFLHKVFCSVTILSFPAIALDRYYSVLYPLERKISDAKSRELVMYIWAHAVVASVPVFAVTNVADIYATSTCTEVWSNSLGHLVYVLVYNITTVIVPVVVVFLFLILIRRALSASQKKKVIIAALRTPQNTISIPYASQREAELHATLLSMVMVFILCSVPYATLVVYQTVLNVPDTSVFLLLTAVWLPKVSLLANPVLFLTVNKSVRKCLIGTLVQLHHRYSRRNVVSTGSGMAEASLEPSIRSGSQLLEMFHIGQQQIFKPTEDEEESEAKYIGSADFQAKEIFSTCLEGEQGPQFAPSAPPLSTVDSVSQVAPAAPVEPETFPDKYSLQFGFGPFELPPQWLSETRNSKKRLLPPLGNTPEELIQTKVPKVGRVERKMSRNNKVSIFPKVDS
Text: as §1

GPR176 [8] = target: T3, GPR176; assay: Dynamic mass redistribution (DMR), validation; assay type: cell-based
Text: as §1

GPR176 [9] = target: T3, GPR176; assay: β-arrestin recruitment (Tango), indicative pairing; assay type: cell-based; details: mean, n = 3
GPR176 [10] = target: T3, GPR176; assay: Real-time receptor internalization (AUC), peptide validation; assay type: cell-based; details: Emax and pEC50 n.d., n = 2
Text: as §1

GPR176 [11] = target: T3, GPR176; assay: Dynamic mass redistribution (DMR, AUC), peptide validation; assay type: cell-based; details: Emax and pEC50 n.d., n = 2
Text: as §1

[12] = test system: 120 GPCR targets, including all available orphan receptors and 27 known class A peptide receptors; assay: Peptide library screen, β-arrestin recruitment (Tango, fold change, 10 μM); assay type: cell-based, human; details: Tango; receptor(s) at which the known library peptide was active, among its known GPCR target(s); validated pairings
How it was run: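 HTLA cells (HEK293 with tTA-dependent luciferase and β-arrestin2-TEV) transiently transfected with Tango GPCR constructs, then stimulated overnight with 10 μM peptides in 1% dFBS medium. Luciferase luminescence read after 15–20 min Bright-Glo incubation at room temperature.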

Molecule: CSCC[C@H](NC(=O)[C@H](CO)NC(=O)[C@H](Cc1ccc(O)cc1)NC(=O)[C@@H](N)CO)C(=O)N[C@@H](CCC(=O)O)C(=O)N[C@@H](Cc1c[nH]cn1)C(=O)N[C@@H](Cc1ccccc1)C(=O)N[C@@H](CCCNC(=N)N)C(=O)N[C@@H](Cc1c[nH]c2ccccc12)C(=O)NCC(=O)N[C@@H](CCCCN)C(=O)N1CCC[C@H]1C(=O)N[C@H](C(N)=O)C(C)C [Alpha-MSH (des-acetyl MSH)]
- Comment on response, Tango (fold over basal); Emax and pEC50 n.d. (GPR139 [1]): No response
- Emax, IP1 (GPR139 [2]): 60.8 nM
- EC50 (GPR139 [2]; read-out: pEC50, IP1 (converted)): 10 µM
- Emax, Internalization (AUC) (GPR139 [3]; data from single experiment (n = 1)): 2.9
- Emax, DMR (peak) (GPR139 [3]; mean, SEM and n): 39.5
- EC50 (GPR139 [3]; mean, SEM and n, read-out: pEC50, DMR (peak) (converted)): 0.0363 µM

Molecule: CC[C@H](C)[C@H](NC(=O)[C@@H](NC(=O)[C@H](Cc1c[nH]c2ccccc12)NC(=O)[C@H](CCC(=O)O)NC(=O)[C@H](CO)NC(=O)[C@@H](NC(=O)[C@H](CO)NC(=O)[C@@H]1CSSC[C@H](NC(=O)[C@H](CC(=O)O)NC(=O)[C@@H](N)CCC(=O)O)C(=O)N[C@@H](CCCCN)C(=O)N[C@@H](Cc2ccc(O)cc2)C(=O)N[C@@H]([C@@H](C)CC)C(=O)N[C@@H](C(C)C)C(=O)N[C@@H](C(C)C)C(=O)N[C@@H](CCC(=O)O)C(=O)N[C@@H](CCCCN)C(=O)N[C@@H](CCCCN)C(=O)N[C@@H](CC(=O)O)C(=O)N2CCC[C@H]2C(=O)N[C@@H](CCCCN)C(=O)N[C@@H](CCCCN)C(=O)N[C@@H]([C@@H](C)O)C(=O)N1)C(C)C)[C@@H](C)CC)C(=O)O [MSMB (91-114)] (H-EDCKYIVVEKKDPKKTCSVSEWII-OH; disulfide 3-17; N-terminus and C-terminus assumed)
- Comment on response, Tango (fold over basal); Emax and pEC50 n.d. (GPR55 [4]): No response
- Emax, DMR (AUC) (GPR55 [5]): 169875.0
- EC50 (GPR55 [5]; read-out: pEC50, DMR (AUC) (converted)): 0.224 µM
- Emax, Internalization (AUC) (GPR55 [6]): 37.6
- EC50 (GPR55 [6]; read-out: pEC50, Internalization (AUC) (converted)): 2.69 µM

Molecule: RSVNPYLQ [SCG5 (181-188)]
- Comment on response, Internalization (AUC); Emax and pEC50 n.d. (GPR176 [7]): No response
- Comment on response, DMR (AUC); Emax and pEC50 n.d. (GPR176 [8]): No response

Molecule: SYSMEHFRWGKPVGKKRRPVKVYPNGAEDESAEAFPLEF [Peptide 208]
- Emax, Tango (fold over basal) (GPR176 [9]): 8.0 fold over basal
- pEC50, Tango (fold over basal) (GPR176 [9]): 5.06
- Comment, Internalization (AUC) (GPR176 [10]): No response
- Comment, DMR (AUC) (GPR176 [11]): No response
- Active at: (activity in b-arrestin recruitment assays) [12]: MC4R
